Where no end group is shown, it is not given here.
Columns and labels:
[1] = target: T1, β1a-SH3 domain (residues 101–272) (Mus musculus, UniProt Q8R3Z5); assay: Tryptophan fluorescence quenching binding to β1a SH3 domain; details: excitation 280 nm, emission 340 nm, refolded β1a-SH3, read-out: Binding affinity to β1a–SH3 domain (residues 101–272) (Kd)
T1 construct: The β1a SH3 protein (residues V101-P272) was purified by IMAC; polyhistidine-tagged ubiquitin (N, cleaved yes); made in house; host or cells: Escherichia coli BL21
T1 sequence (Q8R3Z5 101-272 isoform Q8R3Z5-4): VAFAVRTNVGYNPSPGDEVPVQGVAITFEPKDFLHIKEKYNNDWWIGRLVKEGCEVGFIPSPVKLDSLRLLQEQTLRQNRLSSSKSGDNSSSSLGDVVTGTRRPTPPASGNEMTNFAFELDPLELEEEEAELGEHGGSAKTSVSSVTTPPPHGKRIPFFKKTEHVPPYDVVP
Protocol: (§1) The mouse β1a and β2a subunits (NCBI reference sequences—NM_031173 and NM_023116), the β1a-SH3 domain (β1a residues V101-P272), and the α1s II-III loop (NCBI reference sequence—X05921, residues E666-L791) were amplified by PCR. Each PCR product was cloned in-frame downstream of a polyhistidine-tagged ubiquitin sequence in the plasmid pHUE [27]. The plasmids were transferred into Escherichia coli BL21, and expression of fusion protein was induced by addition of 0.1 mM IPTG (isopropyl β-D-1thiogalactoside) to the culture medium. The His-tagged proteins were purified by chromatography on Ni-agarose. Ubiquitin was removed from the N-terminal end of the recombinant proteins by digestion with a His-tagged ubiquitin-dependant protease. The recombinant β-subunit proteins and the II-III loop were further purified by preparative electrophoresis using a Bio-Rad model 491 prep cell. The final samples were dialysed into a buffer containing 50 mM sodium phosphate pH 8 and 300 mM NaCl (buffer A) and stored at −70 °C.
The β1a SH3 protein (residues V101-P272) was purified by IMAC (immobilized metal affinity chromatography) under denaturing conditions (6M guanidinium HCl) using Ni-NTA resin. The purity of the protein was assessed by SDS page gels (Supplementary Figure S1). The purified protein was then refolded by dialysing against buffer A, and the folded structure was checked by circular dichroism (Supplementary Figure S2). The purified and refolded protein was stored (−70 °C) at concentrations of ~1μM. It was not possible to directly assess the aggregation state of the β1a SH3 protein construct at 1μM as the SEC UV peak absorbance was below detectable levels.
(§2) Equilibrium dissociation constants for β1a and β2a subunit and β1a-SH3 domain binding to the α1s II-III loop and its peptides were determined with a Perkin-Elmer LS 50B6 Spectrofluorimeter. Changes in the intrinsic fluorescence of the tryptophan residues of the β1a subunit or the β1a-SH3 domain was monitored while titrating the α1s II-III loop or its peptides. Excitation was at 280 nm, and fluorescence emission was monitored at 340 nm. Data was corrected for dilution effects and for intrinsic fluorescence of the II-III loop or its peptides and fitted with nonlinear regression using GraphPad Prism software (6.0), as previously described.

[2] = target: T2, DHPR β1a subunit (full-length, β1a-FL) (Mus musculus, UniProt Q8R3Z5); assay: Tryptophan fluorescence quenching binding to full-length β1a; details: excitation 280 nm, emission 340 nm, full-length β1a titrated with loop/peptide, nonlinear regression, read-out: Binding affinity to β1a subunit (Kd)
T2 construct: full-length β1a (β1a-FL); polyhistidine-tagged ubiquitin (N, cleaved yes); made in house; host or cells: Escherichia coli BL21
T2 sequence (Q8R3Z5 1-524 isoform Q8R3Z5-4): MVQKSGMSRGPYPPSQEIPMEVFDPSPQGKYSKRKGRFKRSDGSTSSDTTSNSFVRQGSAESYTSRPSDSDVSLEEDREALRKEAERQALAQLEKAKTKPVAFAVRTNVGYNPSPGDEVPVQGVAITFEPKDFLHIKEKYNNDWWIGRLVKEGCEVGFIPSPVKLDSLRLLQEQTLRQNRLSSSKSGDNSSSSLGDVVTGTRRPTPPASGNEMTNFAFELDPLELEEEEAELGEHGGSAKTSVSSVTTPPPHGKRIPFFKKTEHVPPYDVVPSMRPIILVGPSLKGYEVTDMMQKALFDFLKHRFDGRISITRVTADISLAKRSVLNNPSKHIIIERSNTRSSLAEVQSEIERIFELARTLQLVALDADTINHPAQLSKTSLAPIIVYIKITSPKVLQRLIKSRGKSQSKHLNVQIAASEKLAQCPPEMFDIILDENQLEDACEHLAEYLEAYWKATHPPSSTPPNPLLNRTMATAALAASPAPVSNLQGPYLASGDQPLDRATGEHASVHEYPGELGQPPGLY
Protocol: as §1, §2

[3] = system: DHPRβ1a-null myotubes expressing β1a constructs; assay: Depolarization (KCl)-induced Ca2+ release in Fura-2-loaded myotubes; assay type: cell-based, mouse; details: Fura-2-AM-loaded myotubes expressing the construct; sigmoidal dose–response fit
Protocol: All animal procedures were carried out in accordance with the guidelines of Harvard Medical Area Standing Committee on Animals under experimental protocol number 2589, approved on 01 Sept 2014. Primary myoblasts from DHPRβ1a-null mouse skeletal muscles were isolated from the hindlimb of neonatal mice, as described elsewhere. Stably transduced cell lines were then obtained by infection of primary β-null myoblasts with virion particles carrying the β1a genes at a multiplicity of infection (MOI) of 0.5 and then selected with […] Puromycin for 2 weeks, as described previously. Cells expressing mouse Wtβ1a or β1a-loop chimera subunit were then grown and differentiated in 96-well plates, as described previously. […] Fura-2 images were acquired with a 40 objective (Olympus, UApo/340), and fluorescent emission at 510 nm was then captured from regions of interest within each myotube at 33 frames/s using Piper-controlled acquisition software (Stanford Photonics) and is expressed as the ratio of signal collected at alternating 340 nm/380 nm excitation wavelengths. […] Fluo-4 fluorescent images were acquired using a 60 objective, and emission at 510 nm was then collected from regions of interest from individual cells excited at 490 nm and is expressed as arbitrary fluorescent units.

[4] = system: L-type Ca2+ current (DHPR channel) in β-null myotubes; assay: L-type Ca2+ current, whole-cell patch clamp in cultured myotubes; assay type: cell-based, mouse; details: mean ± SE
Protocol: All animal procedures were carried out in accordance with the guidelines of Harvard Medical Area Standing Committee on Animals under experimental protocol number 2589, approved on 01 Sept 2014. Primary myoblasts from DHPRβ1a-null mouse skeletal muscles were isolated from the hindlimb of neonatal mice, as described elsewhere. Stably transduced cell lines were then obtained by infection of primary β-null myoblasts with virion particles carrying the β1a genes at a multiplicity of infection (MOI) of 0.5 and then selected with […] Puromycin for 2 weeks, as described previously. Cells expressing mouse Wtβ1a or β1a-loop chimera subunit were then grown and differentiated in 96-well plates, as described previously. Calcium imaging was performed 5–6 days after differentiation in myotubes loaded with 5μM Fura-2-AM or 2μM Fluo-4 (Molecular Probes) in imaging buffer (125 mM NaCl, 5 mM KCl, 2 mM CaCl2, 1.2 mM MgSO4, 6 mM glucose, and 25 mM HEPES-Tris, pH 7.4). Cell membrane depolarization was performed by 5s of perfusion with 5–7 volumes of imaging buffer containing increasing concentrations of KCl. To preserve osmolarity of the depolarization buffer, the increased K concentration was compensated with an equivalent reduction in total NaCl concentration. Sarcoplasmic reticulum Ca^2+ content of Fura-2-AM-loaded cultured myotubes was estimated from the peak fluorescent amplitude of the Ca^2+ transient induced by 40 mM caffeine stimulation in the presence of 1μM thapsigargin (Tg) and in the absence of extracellular Ca^2+ [34, 35]. Extracellular Ca^2+ entry at rest was estimated from the rate of dye quench by Mn^2+ entry in myotubes loaded with 5μM Fura-2-AM in the presence and in the absence of 10μM KB-R7943 (glycerol, 2-(2-(4-(4-nitrobenzyloxy) phenyl)ethyl)-isothiourea methane sulfonate), as described previously. Cells were then imaged at 360 nm (5 nm) with an intensified 10-bit digital CCD camera (XR-Mega-10, Stanford Photonics, Stanford, CA, USA) using aDG4 multiwavelength light source. Fura-2 images were acquired with a 40 objective (Olympus, UApo/340), and fluorescent emission at 510 nm was then captured from regions of interest within each myotube at 33 frames/s using Piper-controlled acquisition software (Stanford Photonics) and is expressed as the ratio of signal collected at alternating 340 nm/380 nm excitation wavelengths. […] Fluo-4 fluorescent images were acquired using a 60 objective, and emission at 510 nm was then collected from regions of interest from individual cells excited at 490 nm and is expressed as arbitrary fluorescent units.
The macroscopic Ca^2+ current was determined using the same equipment and protocols previously described (PMID: 29212769). […]

[5] = target: α1s C (α1s II-III loop C region peptide, residues 720–765); assay: Fluorescence binding of β isoforms and chimeras to α1s C peptide; details: β construct titrated with α1s C peptide
Protocol: as §1, with “The recombinant β-subunit proteins and the II-III loop were further purified by preparative electrophoresis using a Bio-Rad model 491 prep cell. The final samples were dialysed into a buffer containing 50 mM sodium phosphate pH 8 and 300 mM NaCl (buffer A) and stored at −70 °C.” left out
as §2

| Kd [1] [µM] | Kd [2] [µM] | Substance | other results |
| --- | --- | --- | --- |
| 3.8 ± 0.2 | 5.4 ± 0.9 | DEPEIPVSPRPRPLAEL [α1s C binding peptide 2 (sP2)] |  |
| 3.6 ± 0.3 | 4.6 ± 0.3 | EEPEMPVGPRPRPLSEL [α1c C binding peptide 2 (cP2)] |  |
| 4.6 ± 0.3 | 4.6 ± 0.4 | KDPYPSADTPGDD [sP1 F⟶T mutant] |  |

Second part, the substance before the results:

| Substance | Kd [1] [µM] | Kd [2] [µM] | other results |
| --- | --- | --- | --- |
| KDPYPSADFPGDD [α1s C binding peptide 1 (sP1)] | 2.6 ± 0.4 | 3.6 ± 0.2 |  |
| KDPYPSADFPGED [sP1 D⟶E mutant] | 17 ± 1 | 15 ± 2 |  |
| KDPYPSADFTGDD [sP1 P⟶T mutant] | 19 ± 2 | 22 ± 2 |  |
| KDPYPSPDFPGDD [sP1 A⟶P mutant] | 2.3 ± 0.2 | 4.5 ± 0.3 |  |
| KSPYPNPETTGEE [α1c C binding peptide 1 (cP1)] | 19 ± 4 | 14 ± 2 |  |
| LKVDEFESNVNEVKDPYPSADFPGDDEEDEPEIPVSPRPRPLAELQ [α1s II–III loop C region (α1s C)] | 3.6 ± 0.6 |  |  |
| β1a: full-length mouse DHPR β1a subunit; recombinant or expressed in β-null myotubes |  |  | EC50 [3]: 6.68 ± 0.45 mM; V1/2 ([4]; potential at which G = 1/2 Gmax, n = 22 / 21): 14.7 ± 0.88 mV; Vr ([4]; reversal potential, n = 22 / 21): 84.8 ± 0.35 mV; k ([4]; slope parameter, n = 22 / 21): 6.0 ± 0.17 mV; Gmax ([4]; β-null myotubes expressing the construct, external 10 mM CaCl2, n = 22 (Wt-β1a), n = 21 (β1a-RT loop)): 453 ± 33.0 pS/pF; Kd [5]: 4.9 ± 0.6 µM |
| β2a: mouse DHPR β2a (cardiac isoform) subunit, recombinant |  |  | Kd for binding to α1s C [5]: no measurable binding |

Reference: article PMC12650144, “Interactive Role of the DHPR β1a SH3 Domain in Skeletal Muscle Excitation–Contraction Coupling” (Biomolecules, 2025)
